Assay results as given in paper PMC7192969 (Journal of Pharmaceutical Analysis, 2019).

What was measured:
[1] = Pharmacokinetics of aconitine in plasma after oral administration; type: in vivo; conditions: male, Sprague-Dawley, rat, 1 mg/kg; for half-life: t1/2z
SD rats = assay: Freund's adjuvant induced hind paw edema, anti-inflammatory effect; type: in vivo, rat
[2] = Group A: aconitine at 1 mg/kg oral, alone
[3] = Group B: aconitine at 1 mg/kg + liquiritin at 10 mg/kg oral
[4] = Group D: aconitine at 1 mg/kg + glycyrrhizic acid at 10 mg/kg oral
[5] = Group E: aconitine at 1 mg/kg + glycyrrhetinic acid at 10 mg/kg oral
[6] = 0 h, 10 mg/kg oral in combination with aconitine 1 mg/kg
[7] = 1 h, 10 mg/kg oral in combination with aconitine 1 mg/kg
[8] = 2 h, 10 mg/kg oral in combination with aconitine 1 mg/kg
[9] = 4 h, 10 mg/kg oral in combination with aconitine 1 mg/kg
[10] = 6 h, 10 mg/kg oral in combination with aconitine 1 mg/kg

Question: Which results are given for `CCN1C[C@]2(COC)[C@H](O)C[C@H](OC)[C@@]34[C@@H]5C[C@@]6(O)[C@H](OC(=O)c7ccccc7)[C@@H]5[C@@](OC(C)=O)([C@@H]([C@H](OC)[C@H]23)[C@@H]14)[C@@H](O)[C@@H]6OC` [Aconitine, aconitine]?
Answer: AUC(0-t) [1]: 33.7 ± 7.47 ng·h/mL; AUC(0-t) [1, 2]: 25.8 ± 4.36 ng·h/mL; AUC(0-t) [1, 3]: 30 ± 6.63 ng·h/mL; AUC(0-t) [1, 4]: 29.1 ± 4.44 ng·h/mL; AUC(0-t) [1, 5]: 19.9 ± 3.61 ng·h/mL; AUC(0-inf) [1]: 34.5 ± 7.07 ng·h/mL; AUC(0-inf) [1, 2]: 29.1 ± 6.15 ng·h/mL; AUC(0-inf) [1, 3]: 31.9 ± 5.6 ng·h/mL; AUC(0-inf) [1, 4]: 33.6 ± 6.93 ng·h/mL; AUC(0-inf) [1, 5]: 20.7 ± 3.55 ng·h/mL; Cmax [1]: 9.19 ± 1.38 ng/mL; Cmax [1, 2]: 4.8 ± 0.966 ng/mL; Cmax [1, 3]: 5.77 ± 0.831 ng/mL; Cmax [1, 4]: 5.73 ± 0.7 ng/mL; Cmax [1, 5]: 5.88 ± 0.73 ng/mL; Tmax [1]: 0.667 ± 0.258 h; Tmax [1, 2]: 1.08 ± 0.376 h; Tmax [1, 3]: 1.67 ± 0.408 h; Tmax [1, 4]: 1.42 ± 0.585 h; Tmax [1, 5]: 0.833 ± 0.258 h; half-life [1]: 131 ± 14.9 min; half-life [1, 2]: 232 ± 61.2 min; half-life [1, 3]: 196 ± 88.8 min; half-life [1, 4]: 209 ± 63.6 min; half-life [1, 5]: 114 ± 25.4 min; hind paw volume (SD rats; 0 h, 1 mg/kg oral, alone): 1.70 ± 0.06 mL; hind paw volume (SD rats; 1 h, 1 mg/kg oral, alone): 1.87 ± 0.10∗ mL; hind paw volume (SD rats; 2 h, 1 mg/kg oral, alone): 1.99 ± 0.15 mL; hind paw volume (SD rats; 4 h, 1 mg/kg oral, alone): 2.02 ± 0.12∗ mL; hind paw volume (SD rats; 6 h, 1 mg/kg oral, alone): 2.19 ± 0.05∗ mL

Question: Which results are given for `CC1(C)[C@@H](O)CC[C@]2(C)[C@H]3C(=O)C=C4[C@@H]5C[C@@](C)(C(=O)O)CC[C@]5(C)CC[C@@]4(C)[C@]3(C)CC[C@@H]12` [Glycyrrhetinic acid, glycyrrhetinic acid]?
Answer: hind paw volume (SD rats; [6]): 1.71 ± 0.05 mL; hind paw volume (SD rats; [7]): 1.80 ± 0.02∗# mL; hind paw volume (SD rats; [8]): 1.79 ± 0.03∗# mL; hind paw volume (SD rats; [9]): 1.91 ± 0.09∗ mL; hind paw volume (SD rats; [10]): 2.10 ± 0.06∗# mL

Question: What does the source list for `CC1(C)[C@@H](O[C@H]2O[C@H](C(=O)O)[C@@H](O)[C@H](O)[C@H]2O[C@@H]2O[C@H](C(=O)O)[C@@H](O)[C@H](O)[C@H]2O)CC[C@]2(C)[C@H]3C(=O)C=C4[C@@H]5C[C@@](C)(C(=O)O)CC[C@]5(C)CC[C@@]4(C)[C@]3(C)CC[C@@H]12` [Glycyrrhizic acid, glycyrrhizic acid]?
Answer: hind paw volume (SD rats; [6]): 1.72 ± 0.03 mL; hind paw volume (SD rats; [7]): 1.92 ± 0.05∗ mL; hind paw volume (SD rats; [8]): 1.96 ± 0.09∗ mL; hind paw volume (SD rats; [9]): 1.99 ± 0.11∗ mL; hind paw volume (SD rats; [10]): 2.14 ± 0.08∗ mL

Question: Which hind paw volume (SD rats; 0 h, 1 mg/kg oral, alone) does the source give for `COc1ccc2c(c1)c(CC(=O)O)c(C)n2C(=O)c1ccc(Cl)cc1` [Indomethacin, reference compound] here?
Answer: 1.67 ± 0.09 mL

Question: What about the hind paw volume (SD rats; 1 h, 1 mg/kg oral, alone) of the same compound?
Answer: 2.00 ± 0.11 mL

Question: What about the hind paw volume (SD rats; 2 h, 1 mg/kg oral, alone) of the same compound?
Answer: 2.04 ± 0.15 mL

Question: And the hind paw volume (SD rats; 4 h, 1 mg/kg oral, alone)?
Answer: 2.15 ± 0.10∗ mL

Question: What about the hind paw volume (SD rats; 6 h, 1 mg/kg oral, alone) of the same compound?
Answer: 2.19 ± 0.18∗ mL

Question: Which results are given for `O=C1C[C@@H](c2ccc(O[C@@H]3O[C@H](CO)[C@@H](O)[C@H](O)[C@H]3O)cc2)Oc2cc(O)ccc21` [Liquiritin, liquiritin]?
Answer: hind paw volume (SD rats; [6]): 1.70 ± 0.05 mL; hind paw volume (SD rats; [7]): 1.78 ± 0.12∗ mL; hind paw volume (SD rats; [8]): 1.81 ± 0.10∗# mL; hind paw volume (SD rats; [9]): 1.83 ± 0.09∗# mL; hind paw volume (SD rats; [10]): 1.96 ± 0.14∗# mL
